Measured values taken from patent publication US8822541B2, “Use of targeted nitroxide agents in mitigating or treating radiation injury” (University of Pittsburgh—Of the Commonwealth System of …, priority 2008, dated 2014).
Entries after “also recorded” stand apart in the source; their conditions may differ.

Tests used:
[1] = system: mice exposed to total body irradiation; experiment: Survival of mice after total body irradiation; format: in vivo, mouse
Procedure: Mice received intraperitoneal injection of 10 mg. per kilogram of each of the chemicals indicated in FIG. 5, then 24 hours later received 9.75 Gy total body irradiation according to published methods. Mice were followed for survival according to IACUC regulations. […] (P=0.0008).
Groups of 15 mice received intraperitoneal injection of 10 mg. per kilogram of each indicated GS-nitroxide compound or carrier (Cremphora plus alcohol at 1 to 1 ratio, then diluted 1 to 10 in distilled water). Mice received 10 mg per kilogram intra-peritoneal injection 24 hours prior to total body irradiation. Control mice received radiation alone. […] (P=0.0005)
C57BL/6NHsd female mice were irradiated to 9.5 Gy whole body irradiation. At 10 min, 30 min, 1 hr, 4 hr, or 8 hr after irradiation, the mice were injected intraperitoneally with JP4-039 (10 mg/kg). The mice were followed for the development of the irradiation induced hematopoietic syndrome.
Mice were irradiated to 9.5 Gy and injected IP 10 minutes later with concentration of JP-4-039 ranging from 0.5 mg/kg to 10 mg/kg. The mice were followed for developments of the hematopoietic syndrome. The optimal dose of JP4-039 providing the best irradiation protection is 5 mg/kg.

[2] = system: 32D cl 3 mouse hematopoietic progenitor cell line; experiment: Irradiation survival curves of 32D cl 3 cells with JP4-039 (Example 10); format: cell-based; conditions: 10 μM, control 1.29
Procedure: Irradiation survival curves were performed on cells from the 32D cl 3 mouse hematopoietic progenitor cell line, incubated in 10 μM JP4-039 for 1 hour before irradiation, or plated in methycellulose containing 10 μM JP4-030 after irradiation. Cells were irradiated from 0 to 8 Gy, plated in 0.8% methycellulose containing media, and incubated for 7 days at 37° C. Colonies of greater than 50 cells were counted and data analyzed by linear quadratic and single-hit, multi-target models.

[3] = system: MEF cells from wild-type mouse embryos; experiment: Toxicity of JP4-039 in wild-type MEF cultures; format: cell-based; conditions: up to 10 μM, 48 hours
Procedure: To assess the therapeutic potential of JP4-039, tests for safety and protective activity were performed. FIGS. 35 and 36 show the results of tests to evaluate whether varying concentrations of JP4-039 produce toxic effects after 48 hours in cultures of MEF cells prepared from Ercc1^−/− or wild-type mouse embryos, respectively.

mouse embryonic cells = experiment: EPR-based analysis of integration and reduction of nitroxide Gramicidin S-peptidyl conjugates in MECs; format: cell-based; conditions: following incubation with solutions of the compounds
Procedure: Electron paramagnetic resonance (“EPR”) spectroscopy was used to monitor the cellular delivery of compounds 5a and 5b shown in FIG. 3 in mouse embryonic cells (“MEC”).
The following conditions were used during the EPR-based analysis of the integration and reduction of nitroxide Gramicidin S-peptidyl conjugates in MECs. The MECs at a concentration of 10 million MECs per mL were incubated with 10 μM of 4-AT and compound 5a, respectively. Recovered nitroxide radicals in whole cells, mitochondria, and cytosol fractions were resuspended in phosphate buffer saline (“PBS”) in the presence and absence, respectively, of 2 μM K3Fe(CN)6.

caspases 3 and 7 = experiment: Caspases 3 and 7 activity in gut mucosa after hemorrhagic shock; format: in vivo, rat; conditions: 10 μM intraluminal, vs vehicle
Procedure: Caspases 3 and 7 activity assay. Caspases 3 and 7 activity was measured using a commercially available assay kit, Caspase GIo™ 3/7 assay kit (Promega, Madison, Wis.). Briefly, 50 μl of rat gut mucosa homogenate (20 jug protein) was mixed with 50 μl of Caspase-Glo™ reagent and incubated at room temperature for 1 hour. At the end of incubation period, the luminescence of each sample was measured using a plate reading chemiluminometer (ML1000, Dynatech Laboratories, Horsham, Pa.). Activity of caspases 3 and 7 was expressed as luminescence intensity (arbitrary units per mg protein). Protein concentrations were determined using the BioRad assay (Bio-Rad Laboratories, Inc., Hercules, Calif.).
In the subsequent series of in vivo studies, the affect of intraluminal XJB-5-131 on hemorrhage-induced peroxidation of phospholipids in intestinal mucosa was examined. […] In a preferred embodiment, 0.3 mL of test solution filled the lumen of each ileal compartment.
After two hours of HS, samples of ileal mucosa from the gut sacs filled with the vehicle and XJB-5-131 were obtained and compared with ileal mucosa of normal MECs. All samples were assayed with caspase 3 or caspase 7 activity as well as the peroxidation of phosphatidylcholine (“PC”), phosphatidylethanolamine (“PE”), phosphatidylserine (“PS”), and cardiolipin (“CL”), summarized in FIG. 7.

[4] = system: Ercc1−/cond; K14-Cre mice; experiment: Photoaging after UV-B in Ercc1−/cond; K14-Cre mice; format: in vivo, mouse; conditions: 80 ug in cream daily for five days
Procedure: As a measure of the effect of XJB-5-131 on photoaging, Ercc1^−/cond; K14-Cre mice, which are missing ERCC1 only in the skin, were shaved, treated with a depilatory then irradiated with UV-B light to induce a sunburn (500 J/m^2, the median erythemal dose). Subsequently, the mice were treated with XJB-5-131 (80 ug) emulsified in a cream daily for five days.

Structure (SMILES): CC(C)C[C@@H](/C=C/CC(=O)NC1CC(C)(C)N([O])C(C)(C)C1)NC(=O)OC(C)(C)C [JP4-039, TEMPO-4-yl-(S,E)-5-(tert-butoxycarbonylamino)-7-methyloct-3-enamide]
- survival of mice ([1]; 9.5 Gy TBI, 10 mg/kg ip 24 hours prior): increases survival
- optimal time of delivery for radiation mitigation ([1]; 9.5 Gy, 10 mg/kg ip after irradiation): 1 h
- optimal dose providing the best irradiation protection ([1]; 9.5 Gy, IP 10 minutes after irradiation): 5 mg/kg
- survival of mice ([1]; 9.75 Gy TBI, 10 mg/kg ip 24 hours before): significant increase in survival
- ñ (shoulder on the survival curve) ([2]; drug added after irradiation): 4.55±0.47
- ñ (shoulder on the survival curve) ([2]; drug added before irradiation): 5.25±0.84
- toxicity [3]: no signs of toxicity; also recorded: not toxic

Structure (SMILES): CC(C)C[C@@H](/C=C/[C@H](Cc1ccccc1)C(=O)N1CCC[C@H]1C(=O)N[C@H](C(=O)N[C@@H](CCCNC(=O)OCc1ccccc1)C(=O)NC1CC(C)(C)N([O])C(C)(C)C1)C(C)C)NC(=O)OC(C)(C)C [XJB-5-131]
- concentration in the mitochondria of cultured mouse embryonic cells (mouse embryonic cells): concentrated in the mitochondria
- caspase 3 and 7 activity after hemorrhagic shock (caspases 3 and 7): significantly decreased
- appearance of UV-B irradiated skin [4]: much more smooth and healthy
